Measured values reported in the Kinase Knowledgebase extract (Sharma et al. 2016).

Each compound was assayed against EGFR (UniProt P00533) (assay: Inhibition of EGFR Kinase Activity).
EGFR, sequence (P00533 whole entry, looked up): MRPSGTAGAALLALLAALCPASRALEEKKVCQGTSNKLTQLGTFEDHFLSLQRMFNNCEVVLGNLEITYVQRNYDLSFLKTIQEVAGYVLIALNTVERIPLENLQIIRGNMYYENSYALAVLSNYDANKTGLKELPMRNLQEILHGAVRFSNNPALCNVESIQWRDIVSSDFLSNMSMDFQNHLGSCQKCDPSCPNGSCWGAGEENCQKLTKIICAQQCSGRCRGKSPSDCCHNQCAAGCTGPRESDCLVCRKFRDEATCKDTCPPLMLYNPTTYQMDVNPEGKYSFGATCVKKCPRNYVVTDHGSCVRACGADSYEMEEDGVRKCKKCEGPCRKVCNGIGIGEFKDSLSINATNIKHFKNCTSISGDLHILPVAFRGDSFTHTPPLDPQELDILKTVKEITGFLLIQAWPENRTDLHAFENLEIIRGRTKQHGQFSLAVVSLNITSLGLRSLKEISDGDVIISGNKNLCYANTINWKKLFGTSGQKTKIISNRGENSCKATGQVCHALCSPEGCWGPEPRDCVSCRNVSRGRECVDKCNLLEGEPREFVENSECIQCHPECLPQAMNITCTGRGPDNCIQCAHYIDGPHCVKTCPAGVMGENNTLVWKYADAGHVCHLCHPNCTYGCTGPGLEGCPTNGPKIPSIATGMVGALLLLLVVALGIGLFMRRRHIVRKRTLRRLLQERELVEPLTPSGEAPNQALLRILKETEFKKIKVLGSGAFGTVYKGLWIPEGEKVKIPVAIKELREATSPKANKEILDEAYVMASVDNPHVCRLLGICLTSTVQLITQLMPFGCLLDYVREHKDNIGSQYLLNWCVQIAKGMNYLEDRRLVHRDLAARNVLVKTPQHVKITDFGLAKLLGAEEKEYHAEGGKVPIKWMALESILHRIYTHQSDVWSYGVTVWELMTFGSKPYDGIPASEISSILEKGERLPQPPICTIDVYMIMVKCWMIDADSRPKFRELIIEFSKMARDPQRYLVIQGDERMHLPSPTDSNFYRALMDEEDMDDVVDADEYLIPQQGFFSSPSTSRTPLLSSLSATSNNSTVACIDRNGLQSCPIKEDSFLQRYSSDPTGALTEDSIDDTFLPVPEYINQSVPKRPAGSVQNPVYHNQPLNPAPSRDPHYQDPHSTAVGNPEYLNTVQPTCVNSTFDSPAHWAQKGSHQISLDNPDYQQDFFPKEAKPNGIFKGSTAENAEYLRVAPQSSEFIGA

IC50, < 50 µM:
C=CC(=O)Nc1ccc(Nc2ncnc(N(C)c3ccc(OCCO)cc3)n2)cc1
C=CC(=O)Nc1cccc(Nc2ncnc(N(C)n3c(=O)[nH]c4ccccc43)n2)c1
C=CC(=O)Nc1ccc(Nc2ncnc(Nc3cccc(C(N)=O)c3)n2)cc1
C=CCN(c1ccc(C(=O)OC)cc1)c1ncnc(Nc2cccc(NC(=O)C#CC)c2)n1
C=CC(=O)Nc1cc(Nc2ncnc(Nc3ccc(OCc4ccccc4)c(Cl)c3)n2)ccc1OCCCN1CCOCC1
C/C=C/C(=O)Nc1cccc(Nc2ncnc(Nc3ccc4c(ccn4Cc4ccccc4)c3)n2)c1
C=CC(=O)Nc1cccc(Nc2ncnc(N(CC)c3ccc(OC)c(OCCOC)c3)n2)c1
C=CCN(c1ncnc(Nc2ccc(NC(=O)C=C)cc2)n1)n1c(=O)[nH]c2ccccc21
CC#CC(=O)Nc1cccc(Nc2ncnc(Nc3cc(Cl)ccc3C)n2)c1
C=CC(=O)Nc1cccc(Nc2ncnc(N(C)c3cccc(Cl)c3)n2)c1
C=CCN(c1ccc(OCCO)cc1)c1ncnc(Nc2cccc(NC(=O)C#CC)c2)n1
C#CCC(=O)Nc1cccc(Nc2ncnc(NN3CCCc4cc(C)ccc43)n2)c1
CC#CC(=O)Nc1cc(Nc2ncnc(Nc3cccc(Cl)c3)n2)ccc1OCCCN1CCOCC1
C#CCC(=O)Nc1cccc(Nc2ncnc(NN3CCCc4cc(Cl)ccc43)n2)c1
C=CC(=O)Nc1cccc(Nc2ncnc(NN3CCCc4cc(OC)ccc43)n2)c1
C=CC(=O)Nc1cccc(Nc2ncnc(Nc3ccc(F)c(Cl)c3)n2)c1
C=CCN(c1ccc(OCC)c(OCC)c1)c1ncnc(Nc2cccc(NC(=O)C=C)c2)n1
CC#CC(=O)Nc1cccc(Nc2ncnc(N(CC)c3cccc(CC(=O)OC)c3)n2)c1
C=CCN(c1cccc(C)c1)c1ncnc(Nc2ccc(NC(=O)C=C)cc2)n1
C=CCN(c1ncnc(Nc2cccc(NC(=O)C#CC)c2)n1)C1CC1c1ccc(Cl)cc1 (centres undefined)
C=CC(=O)Nc1ccc(Nc2ncnc(Nc3ccc(C(=O)OC)cc3)n2)cc1
C=CC(=O)Nc1cccc(Nc2ncnc(N(C)c3ccc4c(cnn4Cc4ccccc4)c3)n2)c1
C=CC(=O)Nc1cccc(Nc2ncnc(N(CC)c3ccc(OCCO)cc3)n2)c1
C=CC(=O)Nc1cccc(Nc2ncnc(Nc3ccc4c(cnn4Cc4ccccn4)c3)n2)c1
CC#CC(=O)Nc1cccc(Nc2ncnc(Nc3ccc(OCc4ccccc4)cc3)n2)c1
C=CC(=O)Nc1cccc(Nc2ncnc(N(CC)c3cccc(S(=O)(=O)c4ccc([N+](=O)[O-])cc4)c3)n2)c1
C=CC(=O)Nc1cccc(Nc2ncnc(N(C)c3ccc(OC)c(OCCOC)c3)n2)c1
C=CC(=O)N(CCCN1CCOCC1)c1cccc(Nc2ncnc(Nc3ccc4c(cnn4Cc4ccccc4)c3)n2)c1
C=CC(=O)Nc1ccc(Nc2ncnc(N(C)c3cccc(S(=O)(=O)c4ccc([N+](=O)[O-])cc4)c3)n2)cc1
C=CC(=O)Nc1ccc(Nc2ncnc(Nc3cc(Cl)cc4ccccc34)n2)cc1
C=CCN(c1cc(OC)c(OC)c(OCCN2CCOCC2)c1)c1ncnc(Nc2ccc(NC(=O)C=C)cc2)n1
C=CC(=O)Nc1cccc(Nc2ncnc(N(C)c3ccc(OCC)c(OCC)c3)n2)c1
C=CCN(c1ncnc(Nc2ccc(NC(=O)C=C)cc2)n1)n1c(=O)n(C(=O)C(C)(C)C)c2ccccc21
CC#CC(=O)Nc1cccc(Nc2ncnc(N(C)C3CC3c3ccc(Cl)cc3)n2)c1 (centres undefined)
